Measured values reported in US8129357B2, “Method of making and using an adenosine analogue” (Academia Sinica, priority 2006, dated 2012).
“Also recorded” adds a separate entry of the source.

What was measured:
A2A-R = biological target: T1, A2A-R (Rattus norvegicus, UniProt P30543); assay: Cellular cAMP content of ST14A cells; format: cell-based; settings: for intracellular cAMP level: 20 min at RT, CGS21680 10 μM, T1-C 10 μM, T1-11 26.8 μM
T1 construct: treating ST14A cells (Ehrlich, et al. (2001)) with either T1-C or T1-11 also elevated the intracellular cAMP level; endogenous in cells; host or cells: ST14A striatal progenitor cell line
T1 sequence (P30543 whole entry): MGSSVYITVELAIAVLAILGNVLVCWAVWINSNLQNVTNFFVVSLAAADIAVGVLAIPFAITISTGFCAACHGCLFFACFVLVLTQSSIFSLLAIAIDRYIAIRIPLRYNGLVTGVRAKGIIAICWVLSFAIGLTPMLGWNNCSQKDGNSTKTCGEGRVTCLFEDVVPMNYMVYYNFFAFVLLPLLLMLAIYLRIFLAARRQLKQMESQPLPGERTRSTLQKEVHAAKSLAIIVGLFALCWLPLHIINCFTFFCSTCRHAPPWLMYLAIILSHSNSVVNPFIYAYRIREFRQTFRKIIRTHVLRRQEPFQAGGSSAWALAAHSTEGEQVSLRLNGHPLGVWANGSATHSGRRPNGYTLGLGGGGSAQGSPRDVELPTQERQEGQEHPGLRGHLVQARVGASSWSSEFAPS

BV2 cells = assay: LPS-evoked iNOS induction and NO production in BV2 cells; format: cell-based
[1] = system: primary astrocytes from wildtype (WT) and R6/2-J2 mice; assay: LPS-induced iNOS expression and NO production in primary astrocytes; format: cell-based, mouse; settings: primary astrocytes from WT and R6/2-J2 mice
Description: Primary astrocytes were purified from neonatal (1-2-day old) brains of R6/2 HD mice (Mangiarini, L., et al., Exon 1 of the HD gene with an expanded CAG repeat is sufficient to cause a progressive neurological phenotype in transgenic mice. Cell 87, 493-506 (1996)) and their littermates as the WT control. In brief, the cortexes were carefully removed, digested with 0.05% trypsin-EDTA (Gibco, Grand Island, N.Y., USA) at 37° C. for 10 min, then mechanically dissociated by gentle pipetting and passed through a 70-μm-pore nylon mesh. […] Mutant Htt expression was measured by a mouse monoclonal anti-human Htt antibody (EM48) (1:200 dilution, Chemicon International, Temecula, Calif., USA). The purity of the primary astrocyte cultures was determined by immunocytochemical staining using an antibody against an astrocyte-specific marker (GFAP, dilution 1:1000; Sigma, St. Louis, Mo., USA) or a microglia-specific marker (anti-CD11b, dilution 1:200, Serotec, Oxford, UK). […]
Protein concentrations were determined using the Bio-Rad Protein Assay Dye Reagent Concentrate (Bio-Rad, Hercules, Calif., USA). […]
For the measurement of NO production, cells (5×10^5 cells/well) were treated with lipopolysaccharide (LPS, 0.5 μg/ml) in the presence of the desired drug for 72 hr. […] The absorbance at 540 nm was then monitored. […]

R6/2 mice [2] = assay: Survival / lifespan of R6/2 mice; format: in vivo, mouse; settings: for lifespan of R6/2 mice: drinking water from the age of 4 weeks, T1-C 0.5 mg/mL, T1-11 0.05 mg/mL; for mean survival time: mean±SEM, n=7~8, T1-C 0.5 mg/mL, T1-11 0.05 mg/mL in drinking water, control 94.9±2.5
PC12 cells = assay: MTT assay: protection of serum-deprived PC12 cells from apoptosis; format: cell-based, rat; settings: 24 h treatment
Description: PC12 cells purchased from American Type Culture Collection (ATCC, Manassas, Va., USA) were maintained in Dulbecco's Modified Eagle Medium (DMEM) supplemented with 10% horse serum and 5% fetal bovine serum and incubated in a CO2 incubator (5%) at 37° C. The striatal progenitor cell line (ST14A) was obtained from Dr. E. Cattaneo (University of Milano, Italy) and was maintained in an incubation chamber with 10% CO2-90% air at 33° C. as described previously (Ehrlich, et al. (2001)).
PC12 cells were serum-deprived by three washes of phosphate buffered saline (PBS) and resuspended in DMEM. The suspended cells were plated on 96-well plates (1×10^4 cells/well) and treated with the indicated reagent(s). After treatment for 21 h, 3-(4,5-dimethylthiazol-2-yl)-2,5-diphenyl tetrazolium bromide (MTT) was added to the medium (0.5 mg/mL) and incubated at 37° C. for another 3 h. After discarding the medium, 100 μl dimethyl sulfoxide (DMSO) was then applied to each well to dissolve the formazan crystals and the absorbances at 570 and 630 nm in each well were measured on a micro-enzyme linked immunosorbent assay (ELISA) reader.

Body weight of R6/2 mice = format: in vivo, mouse; settings: drinking water from the age of 4 weeks, T1-C 0.5 mg/mL, T1-11 0.05 mg/mL
R6/2 mice [3] = assay: Rotarod performance (motor coordination) in R6/2 mice; format: in vivo, mouse; settings: drinking water from the age of 4 weeks, T1-C 0.5 mg/mL, T1-11 0.05 mg/mL
From the text: Male R6/2 mice and littermate controls were mated to female control mice (B6CBAFI/J). Mice were obtained from Jackson Laboratories, Bar Harbor, Me., USA. Offspring were identified by the PCR genotyping technique of genomic DNA extracted from tail tissues using primers located in the transgene (5′-[…]-3′ (SEQ ID NO: 1) and 5′-[…]-3′ (SEQ ID NO: 2)) to ensure that the number of CAG repeats remained approximately 150. In total, 67 R6/2 transgenic mice were used in this study. Animals were housed at the Institute of Biomedical Sciences Animal Care Facility under a 12-h light/dark cycle. Daily injections of the indicated reagent were given between 13:00 and 18:00. Body weights of mice were recorded once daily, prior to diet administration. Animal experiments were performed under protocols approved by the Academia Sinica Institutional Animal Care and Utilization Committee, Taiwan.
Motor coordination was assessed using a rotarod apparatus (UGO BASILE, Comerio, Italy) at a constant speed (12 rpm) over the period of 2 min (Carter, et al. (1999)). All mice were trained for 2 days at the age of 6 weeks to allow them to become acquainted with the rotarod apparatus. Animals were then tested three times per week from the ages of 7 to 12 weeks. For each test, animals were placed in the apparatus before initiation of rotation. Latency to falling was automatically recorded. […]

| suppression of the cAMP response by A2A-R antagonist (A2A-R) | Structure (SMILES) | LPS-evoked NO production (BV2 cells) | LPS-evoked iNOS induction (BV2 cells) | intracellular cAMP level (A2A-R) | LPS-induced inflammation (iNOS expression and NO production) [1] | lifespan of R6/2 mice (R6/2 mice [2]) | mean survival time (R6/2 mice [2]) [days] | protection of PC12 cells from apoptosis induced by serum withdrawal (cell viability, MTT) (PC12 cells) | body weight loss (Body weight of R6/2 mice) | progressive deterioration of motor coordination (rotarod performance) (R6/2 mice [3]) |
| --- | --- | --- | --- | --- | --- | --- | --- | --- | --- | --- |
| suppressed | Cn1c(=O)c2c(nc(/C=C/c3cccc(Cl)c3)n2C)n(C)c1=O [CSC, reference compound] |  |  |  |  |  |  |  |  |  |
|  | OCC1OC(n2cnc3c(NCc4ccc(O)cc4)ncnc32)C(O)C1O (stereo not shown) [T1-11, 2-(6-(4-hydroxybenzylamino)-9H-purin-9-yl)-5-(hydroxymethyl)tetrahydrofuran-3,4-diol] | reduces | reduces | elevated | effectively suppressed | elongated | 104.9 ± 5.2 | active; also recorded: much more potent than T1-C | ameliorated | markedly delayed |
|  | Oc1ccc(CSCc2ccc(O)cc2)cc1 [T1-C, 4,4′-dihydroxybenzyl sulfide] |  |  | elevated |  | elongated | 106.7 ± 4.6 | active | ameliorated | markedly delayed |
